pIC50: −log10 of the molar value.
Target: KRAS G12C (Homo sapiens (Human), UniProt P01116, C118A/G12C)
Assay: 2 h coupled exchange assay
Assay type: biochemical
Details: Avg 2 h Coupled exchange IC50, 2 h compound pre-incubation
Description: The term “2 h coupled exchange assay” or “20 h coupled exchange assay” as used herein refers to the assay described in the Section entitled “BIOLOGICAL EVALUATION.”

Sequence of KRAS G12C (P01116 other isoform, or with tags, fused parts or gaps G12C/C118A): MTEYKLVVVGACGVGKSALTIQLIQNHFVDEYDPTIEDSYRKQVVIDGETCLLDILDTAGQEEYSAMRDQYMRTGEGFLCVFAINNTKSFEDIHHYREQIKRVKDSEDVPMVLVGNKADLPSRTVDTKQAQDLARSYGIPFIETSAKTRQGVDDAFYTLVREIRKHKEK

`C=CC(=O)N1CC2(CCN(c3nc4cc(-c5scnc5C)cnc4c(-c4ccccc4F)c3Cl)C2)C1` [Example 28-1, 1-(6-(3-chloro-4-(2-fluorophenyl)-7-(4-methylthiazol-5-yl)-1,5-naphthyridin-2-yl)-2,6-diazaspiro[3.4]octan-2-yl)prop-2-en-1-one] and `C=CC(=O)N1CC2(CCN(c3nc4cc(-c5ccnn5C)ccc4c(-c4ccccc4F)c3C)C2)C1` [Example 16-4, 1-(6-(4-(2-fluorophenyl)-3-methyl-7-(1-methyl-1H-pyrazol-5-yl)-2-quinolinyl)-2,6-diazaspiro[3,4]octan-2-yl)-2-propen-1-one] are within 0.2 log units of each other in pIC50: 6.18 for the first, 6.19 for the second.

Going from `C=CC(=O)N1CC2(CCN(c3nc4c(c(-c5c(C)c(C)cc6cnn(C)c56)c3C)COC(C)(C)C4)C2)C1` (single isomer, unassigned) [Example 14-42, (M)-1-(6-(3,7,7-trimethyl-4-(1,5,6-trimethyl-1H-indazol-7-yl)-7,8-dihydro-5H-pyrano[4,3-b]pyridin-2-yl)-2,6-diazaspiro[3.4]octan-2-yl)-2-propen-1-one] to `C=CC(=O)N1CC2(CCN(c3nc4c(c(-c5c(C)ccc6cnn(C)c56)c3C(F)F)COC(C)(C)C4)C2)C1` [Example 29-1, 1-(6-(3-(difluoromethyl)-4-(1,6-dimethyl-1H-indazol-7-yl)-7,7-dimethyl-7,8-dihydro-5H-pyrano[4,3-b]pyridin-2-yl)-2,6-diazaspiro[3.4]octan-2-yl)-2-propen-1-one], the pIC50 rises from 5.11 to 6.19 (1.08 log units).

First: Cc1ccc2[nH]ncc2c1-c1c(C#N)c(N2CCC3(CN(C(=O)/C=C/COC(F)F)C3)C2)nc2c1CCC(C)(C)C2 [Example 30-1, 2-(2-((2E)-4-(difluoromethoxy)-2-butenoyl)-2,6-diazaspiro[3.4]octan-6-yl)-7,7-dimethyl-4-(5-methyl-1H-indazol-4-yl)-5,6,7,8-tetrahydro-3-quinolinecarbonitrile]
Second: C=CC(=O)N1CC2(CCN(c3nc4c(c(-c5cc(O)ccc5C)c3C)COC(C)(C)C4)C2)C1 (single isomer, unassigned) [Example 14-32, (P)-1-(6-(4-(5-hydroxy-2-methylphenyl)-3,7,7-trimethyl-7,8-dihydro-5H-pyrano[4,3-b]pyridin-2-yl)-2,6-diazaspiro[3.4]octan-2-yl)-2-propen-1-one]
The pIC50 of the first is 0.79 log units higher: 6.31 for the first, 5.52 for the second. The first is the more potent here.

Going from `C=CC(=O)N1CC2(CCN(c3nc4cc(-c5cc(C)nn5C)ccc4c(-c4ccccc4Cl)c3C)C2)C1` [Example 16-2, 1-(6-(4-(2-chlorophenyl)-7-(1,3-dimethyl-1H-pyrazol-5-yl)-3-methyl-2-quinolinyl)-2,6-diazaspiro[3.4]octan-2-yl)-2-propen-1-one] to `C=CC(=O)N1CC2(CCN(c3nc4ccccc4c(-c4c(C)c(Cl)cc5cnn(C)c45)c3C#N)C2)C1` [Example 14-90, 4-(5-chloro-1,6-dimethyl-1H-indazol-7-yl)-2-(2-(2-propenoyl)-2,6-diazaspiro[3.4]octan-6-yl)-3-quinolinecarbonitrile], the pIC50 rises from 6.19 to 6.83 (0.64 log units). The second is the more potent here.

Work on `C=CC(=O)N1CC2(CCN(c3nc4c(c(-c5cccc6cc(O)ccc56)c3F)COC(C)(C)C4)C2)C1` (single isomer, unassigned) [Example 14-66, (P)-1-(6-(3-fluoro-4-(6-hydroxy-1-naphthalenyl)-7,7-dimethyl-7,8-dihydro-5H-pyrano[4,3-b]pyridin-2-yl)-2,6-diazaspiro[3.4]octan-2-yl)-2-propen-1-one] yielded a pIC50 of 4.47.
With `C=CC(=O)N1CC2(CCN(c3nc4c(c(-c5cccc6cc(O)ccc56)c3F)COC(C)(C)C4)C2)C1` (single isomer, unassigned) [Example 14-67, (M)-1-(6-(3-fluoro-4-(6-hydroxy-1-naphthalenyl)-7,7-dimethyl-7,8-dihydro-5H-pyrano[4,3-b]pyridin-2-yl)-2,6-diazaspiro[3.4]octan-2-yl)-2-propen-1-one] the pIC50 was 6.19.

Same assay, conditions: Avg 2 h Coupled exchange IC50, 2 h compound pre-incubation, SOS-mediated nucleotide exchange

Compared with `C=CC(=O)N1CC2(CCN(c3nc4c(c(-c5cc(O)ccc5C)c3C#N)C[C@H]3C[C@@H]4C3(C)C)C2)C1` (single isomer, unassigned) [Example 2-68], `C=CC(=O)N1CC2(CCN(c3nc4c(c(-c5cnccc5C)c3C#N)C[C@H]3C[C@@H]4C3(C)C)C2)C1` [Example 13-109, (1R,9R)-10,10-dimethyl-6-(4-methyl-3-pyridinyl)-4-(2-(2-propenoyl)-2,6-diazaspiro[3.4]octan-6-yl)-3-azatricyclo[7.1.1.0^2,7]undeca-2,4,6-triene-5-carbonitrile] is 1.15 log units higher in pIC50: 4.80 for the first, 5.95 for the second.

Going from `C=CC(=O)N1CC2(CCN(c3nc4ccccc4c(-c4c(CC)ccc5[nH]ncc45)c3C#N)C2)C1` [Example 4, 4-(5-ethyl-1H-indazol-4-yl)-2-(2-(2-propenoyl)-2,6-diazaspiro[3.4]octan-6-yl)-3-quinolinecarbonitrile] to `C=CC(=O)N1CC2(CCN(c3nc4ccccc4c(-c4c(C)ccc5[nH]ncc45)c3C3CC3)C2)C1` [Example 6, 1-(6-(3-cyclopropyl-4-(5-methyl-1H-indazol-4-yl)quinolin-2-yl)-2,6-diazaspiro[3.4]octan-2-yl)prop-2-en-1-one], the pIC50 falls from 5.98 to 5.46 (0.52 log units). The first is the more potent here.

Going from `C=CC(=O)N1CC2(CCN(c3nc4c(c(-c5c(C)ccc6cnn(C)c56)c3C#N)[C@@H]3CC[C@H]4C3)C2)C1` (single isomer, unassigned) [Example 14-16] to `C=CC(=O)N1CC2(CCN(c3nc4c(c(-c5c(C)ccc6[nH]ncc56)c3C#N)[C@H]3CC[C@@H]4C3)C2)C1` (single isomer, unassigned) [Example 14-8], the pIC50 rises from 3.60 to 5.59 (1.99 log units). The second is the more potent here.

`C=CC(=O)N1CC2(CCN(c3nc4c(c(-c5cc(O)c(F)c6ccccc56)c3C#N)COC(C)(C)C4)C2)C1` (single isomer, unassigned) [Example 13-77, (M)-4-(4-fluoro-3-hydroxy-1-naphthalenyl)-7,7-dimethyl-2-(2-(2-propenoyl)-2,6-diazaspiro[3.4]octan-6-yl)-7,8-dihydro-5H-pyrano[4,3-b]pyridine-3-carbonitrile] and `C=CC(=O)N1CC2(CCN(c3nc4c(c(-c5cc(O)cc6ccccc56)c3C#N)CC(C)(C)C4)C2)C1` (single isomer, unassigned) [Example 13-68, (M)-4-(3-hydroxy-1 naphthalenyl)-6,6-dimethyl-2-(2-(2-propenoyl)-2,6-diazaspiro[3.4]octan-6-yl)-6,7-dihydro-5H-cyclopenta[b]pyridine-3-carbonitrile] are within 0.2 log units of each other in pIC50: 4.45 for the first, 4.57 for the second.

First: C=CC(=O)N1CC2(CCN(c3nc4c(c(-c5cccc(F)c5O)c3C#N)C[C@H]3C[C@@H]4C3(C)C)C2)C1 (single isomer, unassigned) [Example 2-72]
Second: C=CC(=O)N1CC2(CCN(c3nc4c(c(-c5ccccc5Cl)c3C#N)CC(C)(C)C4)C2)C1 (single isomer, unassigned) [Example 13-25, (P)-4-(2-chlorophenyl)-6,6-dimethyl-2-(2-(2-propenoyl)-2,6-diazaspiro[3.4]octan-6-yl)-6,7-dihydro-5H-cyclopenta[b]pyridine-3-carbonitrile]
The pIC50 of the first is 0.28 log units lower: 6.19 for the first, 6.47 for the second. The second is the more potent here.

`C=CC(=O)N1CC2(CCN(c3nc4c(c(-c5c(O)ccc6ccccc56)c3C#N)C[C@H]3C[C@@H]4C3)C2)C1` (single isomer, unassigned) [Example 13-36] and `C=CC(=O)N1CC2(CCN(c3nc4c(c(-c5cccc(F)c5O)c3C#N)C[C@H]3C[C@@H]4C3(C)C)C2)C1` [Example 2-70, (1R,9R)-6-(3-fluoro-2-hydroxyphenyl)-10,10-dimethyl-4-(2-(2-propenoyl)-2,6-diazaspiro[3.4]octan-6-yl)-3-azatricyclo[7.1.1.0^2,7]undeca-2,4,6-triene-5-carbonitrile] are within 0.2 log units of each other in pIC50: 6.00 for the first, 5.87 for the second.

Compared with `C=CC(=O)N1CC2(CCN(c3nc4c(c(-c5c(C)c(C)cc6cnn(C)c56)c3C)CCN(C(C)C)C4)C2)C1` [Example 12-25, 1-(6-(3-methyl-7-(2-propanyl)-4-(1,5,6-trimethyl-1H-indazol-7-yl)-5,6,7,8-tetrahydro-1,7-naphthyridin-2-yl)-2,6-diazaspiro[3.4]octan-2-yl)-2-propen-1-one], `C=CC(=O)N1CC2(CCN(c3nc4c(c(-c5c(C)ccc6cnn(C)c56)c3C#N)COC4(C)C)C2)C1` (single isomer, unassigned) [Example 13-56, (P)-4-(1,6-dimethyl-1H-indazol-7-yl)-,7,7-dimethyl-2-(2-(2-propenoyl)-2,6-diazaspiro[3.4]octan-6-yl)-5,7-dihydrofuro[3,4-b]pyridine-3-carbonitrile] is 3.00 log units lower in pIC50: 6.85 for the first, 3.85 for the second. The first is the more potent here.

Compared with `Cc1ccc2[nH]ncc2c1-c1c(C#N)c(N2CCC3(CN(C(=O)/C=C/C(F)(F)F)C3)C2)nc2c1CCC(C)(C)C2` [Example 13-7, 7,7-dimethyl-4-(5-methyl-1H-indazol-4-yl)-2-(2-((2E)-4,4,4-trifluoro-2-butenoyl)-2,6-diazaspiro[3.4]octan-6-yl)-5,6,7,8-tetrahydro-3-quinolinecarbonitrile], `C=CC(=O)N1CC2(CCN(c3nc4c(c(-c5c(C)ccc6[nH]ncc56)c3COC)CCC(C)(C)C4)C2)C1` [Example 13-46, 1-(6-(3-(methoxymethyl)-7,7-dimethyl-4-(5-methyl-1H-indazol-4-yl)-5,6,7,8-tetrahydro-2-quinolinyl)-2,6-diazaspiro[3.4]octan-2-yl)-2-propen-1-one] is 0.48 log units lower in pIC50: 6.64 for the first, 6.16 for the second.

Going from `C=CC(=O)N1CC2(CCN(c3nc4c(c(-c5c(O)ccc6ccccc56)c3C#N)C[C@H]3C[C@@H]4C3)C2)C1` [Example 13-35, (1S,9S)-6-(2-hydroxy-1-naphthalenyl)-4-(2-(2-propenoyl)-2,6-diazaspiro[3.4]octan-6-yl)-3-azatricyclo[7.1.1.0^2,7]undeca-2,4,6-triene-5-carbonitrile] to `C=CC(=O)N1CC2(CCN(c3cc4c(c(-c5c(C)ccc6[nH]ncc56)c3C#N)COCC4)C2)C1` (single isomer, unassigned) [Example 2-99, (M)-8-(5-methyl-1H-indazol-4-yl)-6-(2-(2-propenoyl)-2,6-diazaspiro[3.4]octan-6-yl)-3,4-dihydro-1H-2-benzopyran-7-carbonitrile], the pIC50 falls from 5.75 to 5.36 (0.39 log units). The first is the more potent here.

Reference: patent publication US20240059703A1 (AMGEN INC., priority 2021, published 2024)
